{
  "source": "patent US20250051409A1",
  "about": "“MODULATORS OF PHOSPHATIDYLSERlNE DECARBOXYLASE AND USE THEREOF” (THE NATIONAL INSTITUTE FOR BIOTECHNOLOGY IN THE NEGEV LTD., priority 2021, published 2025)",
  "key": {"[1]": {"system": "SMAC", "test": "IF staining of peptide-treated tumor sections, SMAC", "format": "in vivo, nude mice", "conditions": "peptide-treated A549 tumors", "protocol": "(§1) Sections of paraffin-embedded control and peptide treated tumors were IF stained using specific antibodies and subjected to quantification. Relative staining intensity for the nuclear proliferation marker, Ki-67 (and its (A), SMAC (B) and NF-kB (C). Results represent the means±SEM (n=3) ***P≤0.001. (G) Sections from the indicated tumors were stained with H & E, with some areas were magnified.\n(§2) In order to reduce non-specific binding, sections were incubated in 10% normal goat serum for 2 h, then incubated with primary antibodies (Table 1) overnight at 4° C. […] Sections were washed with water, counterstained with hematoxylin, and mounted with Vectashield mounting medium (Vector Laboratories, Burlingame, CA)."}, "[2]": {"system": "NF-κB", "test": "IF staining of peptide-treated tumor sections, NF-κB", "format": "in vivo, nude mice", "conditions": "peptide-treated A549 tumors, immunofluorescence", "protocol": "as §1, §2"}, "[3]": {"system": "A549 cell xenografts", "quoted_text": "A549 cells were S.C. inoculated into female nude mice (7×10^6 cells/mouse). Tumors sizes were measured (using a digital caliper) and volumes were calculated. When tumors volumes reached 60-100 mm3 (day 12), the mice were divided into 2 groups and xenografts were untreated (●) or treated with HtrA2/Omi-derived D-amino acid peptide targeted to the mitochondria (D-HTRA2-M, o). The tumors were injected 3 times a week to a final concentration of 50 μM. […] Tumors of A549 cell xenografts were dissected, photographed (B) and weighted (C). […] Results represent the means±SEM (n=8), **P≤0.01, ***P≤0.001.\nA549 cells were inoculated subcutaneously into female nude mice (7×10^6 cells/mouse). Tumors sizes were measured (using a digital caliper) and volumes were calculated. When tumors volumes reached 60-100 mm3 (day 12), the mice were divided into 2 groups (control and treatment) and in the treatment group xenografts were treated with HtrA2/Omi-derived D-amino acid peptide (SEQ ID NO:35) targeted to the mitochondria. The tumors were injected 3 times a week to a final concentration of 50 μM or the peptide was administered by intravenous injection 2 times a week to a final concentration of 20 mg/kg. Tumors of A549 cell xenografts were dissected, photographed and weighted."}, "[4]": {"target": "T1, phosphatidylserine decarboxylase (PSD) (Homo sapiens, UniProt Q9UG56)", "T1 construct": "Purified recombinant protein (full length) of human phosphatidylserine decarboxylase (PSD); His tag (N); purchased Acris-OriGene; host or cells: E. coli", "T1 sequence (Q9UG56 53-409)": "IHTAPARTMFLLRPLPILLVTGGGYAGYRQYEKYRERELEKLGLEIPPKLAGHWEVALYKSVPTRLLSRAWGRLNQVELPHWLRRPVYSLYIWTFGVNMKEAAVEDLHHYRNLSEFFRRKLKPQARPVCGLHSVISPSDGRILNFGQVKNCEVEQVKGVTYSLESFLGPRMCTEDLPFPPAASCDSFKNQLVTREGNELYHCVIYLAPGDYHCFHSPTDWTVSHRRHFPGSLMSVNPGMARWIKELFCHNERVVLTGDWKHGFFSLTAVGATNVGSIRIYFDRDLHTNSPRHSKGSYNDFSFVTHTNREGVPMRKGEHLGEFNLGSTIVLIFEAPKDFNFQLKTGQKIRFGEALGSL", "test": "MST binding of synthetic peptides to fluorescently-labelled purified PSD", "conditions": "PSD 0.25 μM, peptide 1-10 μM, 30 min at 37° C."}, "[5]": {"target": "T1, phosphatidylserine decarboxylase (PSD)", "test": "Peptide array blotted with PSD preincubated with peptide", "format": "binding", "conditions": "PSD 0.15 μM, peptide 20 μM", "protocol": "(A) Schematic presentation of peptide array and detection of their interaction with SMAC. (B) Glass-bound peptide array consisting of overlapping peptides derived from […] SMAC-interacting proteins were incubated overnight with purified SMAC (0.3 μM) and then blotted with anti-SMAC antibodies (1:1000), followed by incubation with HRP-conjugated anti-mouse IgG and detection using a chemiluminescence kit. Dark spots represent binding of SMAC to peptides derived from SMAC-interacting proteins. (C) SMAC (0.3 μM) was incubated with purified PSD (0.4 μM) and blotted as in (B). The peptide spots where PSD prevented interaction with SMAC are circled. (D) Schematic presentation of peptide array and detection of their interaction with PSD. (E) Peptide array was blotted with purified PSD (0.15 μM) and then with anti-PSD antibodies as in (B). […]\nCustomized 768-peptide sequences derived from 11 SMAC-interacting proteins produced by INTAVIS Peptide Services (GmbH & Co. KG, Tubingen, Germany) were arrayed on a glass slide. […] Following extensive slide washing with Tris-buffered saline containing 0.05% Tween-20, SMAC or PSD binding was detected using anti-SMAC or anti-PSD antibodies and HRP-conjugated anti-rabbit or anti-mouse IgG as a secondary antibody. […]"}, "[6]": {"system": "A-549 cells", "test": "Cell death on DSB-3 staining", "format": "cell-based, human", "conditions": "data not shown", "protocol": "A549 and A549-SMAC-KO cells were seeded on sterile cover slips in 24-well cell culture plates (75,000 cells/well) and allowed to adhere for 24 h. MitoTracker® (250 nM in DMEM+10% FBS) was added, and plates were incubated in a CO2 incubator for 30 min at 37° C. Cells were washed with PBS and incubated with DSB3 (10 μM in reaction buffer; 40 mM NaCl, 1 mM KPO4, pH 7.4) in a C02 incubator for 2 h. Cells were washed with PBS, fixed with 4% PFA for 20 min at room temperature, washed with PBS, and stained with DAPI for 20 min at room temperature. Cover slips were washed with PBS and mounted with Vectashield, and imaging was done using confocal microscopy (Olympus 1X81)."}, "[7]": {"system": "Ki-67", "test": "Ki-67 IHC in si-hSMAC-A treated tumors", "format": "in vivo, athymic nude mice", "protocol": "(§3) Treatment was initiated when the average tumor volume in each group reached ˜50 mm^3. Results are presented as the mean tumor volume±SEM. […] Scale bars represent 50, 25 or 15 μm as indicated. […] Results are the means±SEM.\nas §2"}, "[8]": {"system": "A549 lung cancer tumor xenograft", "test": "A549 xenograft tumor growth under si-hSMAC-A", "format": "in vivo, athymic nude mice", "description": "as §3\nMale athymic nude mice (6-8 weeks old) were obtained from Envigo and were kept in Ben-Gurion University (Israel) animal facility in temperature-controlled rooms and provided with water and food pellets ad libitum. Lung cancer A549 (3×10^6) cells were implanted subcutaneously on the dorsal flanks. Tumor growth was recorded using digital calipers, and volumes were calculated using formula […] (L=length; W=width). Mice were divided randomly into three groups once the average tumor volume reached ˜80 mm^3, and were treated subcutaneously with si-NT (group 1) or si-hSMAC (group 2-350 nM group 3-700 nM final concentration) mixed with JetPEI reagent three times a week. Mice were sacrificed at the end of experiment, and the tumors were excised and processed for immunohistochemistry or frozen in liquid nitrogen for immunoblotting and RNA isolation. All procedures involving mice were approved by the Institutional Animal Care and Use Committee."}, "[9]": {"system": "A549 lung cancer tumor xenograft", "test": "TUNEL staining of si-hSMAC-A treated tumors", "format": "in vivo, athymic nude mice", "conditions": "data not shown"}, "[10]": {"system": "total phospholipids (PLs), PC, and PE", "test": "PL, PC and PE levels in si-hSMAC-A treated tumors", "format": "in vivo, athymic nude mice", "conditions": "relative to si-NT-TTs"}, "[11]": {"system": "SMAC/Diablo", "test": "SMAC/Diablo level in si-hSMAC-A treated tumors (immunoblot, IHC)", "format": "in vivo, athymic nude mice", "conditions": "relative to si-NT-TTs", "protocol": "as §3, §2\nCells were harvested and washed twice with ice-cold PBS, and the pellets were lysed on ice for 30 min in a lysis buffer (50 mM Tris-HCl, pH 7.5, 150 mM NaCl, 1 mM EDTA, 1.5 mM MgCl2, 10% glycerol, 1% Triton X-100), freshly supplemented with a protease inhibitor cocktail (Calbiochem), incubated on ice for 20 min and centrifuged thereafter (10 min, 12000 g). The protein concentration of the supernatant was determined and […] were stored at −80° C. until used for gel electrophoresis and immunoblotting. Protein samples (10-20 μg) were subjected to SDS-PAGE and immunoblotting, using the selected primary antibodies, followed by incubation with HRP-conjugated secondary antibodies. HRP activity was determined using enhanced chemiluminescent substrate (Pierce Chemical, Rockford, IL). Band intensity was quantified using FUSION-FX (Vilber Lourmat, France)."}},
  "note": "Square brackets hold non-standard residues; d marks the D form. Ends that are not written are not given here. Peptide text beside a SMILES is read from it. Dmt = Cc1cc(O)cc(C)c1C[C@H](N)C(=O)O; Orn = NCCC[C@H](N)C(=O)O",
  "data": [
    {"compound": "Cc1cc(O)cc(C)c1C[C@H](NC(=O)[C@@H](CCCNC(=N)N)NC(=O)[C@@H](CC(C)C)NC(=O)[C@@H](CCCNC(=N)N)NC(=O)[C@@H](C)NC(=O)[C@@H](Cc1c[nH]c2ccccc12)NC(=O)[C@@H](CC(C)C)NC(=O)[C@@H](CO)NC(=O)[C@H]1CCCN1C(=O)[C@H](NC(=O)CNC(=O)[C@@H](Cc1ccc(O)cc1)NC(=O)[C@H](NC(=O)[C@H](NC(=O)[C@@H](CCCNC(=N)N)NC(=O)[C@@H](C)NC(=O)[C@@H](CCCNC(=N)N)NC(=O)[C@H]1CCCN1C(=O)[C@@H](CC(=O)O)NC(=O)[C@@H](CO)NC(=O)[C@H](NC(=O)CNC(=O)[C@@H](CO)NC(=O)[C@H](NC(=O)[C@@H](CC(C)C)NC(=O)[C@@H](CC(C)C)NC(=O)[C@@H](C)N)[C@H](C)O)[C@H](C)O)C(C)C)[C@H](C)O)[C@H](C)O)C(=O)N[C@@H](CCCN)C(=O)N[C@@H](Cc1ccccc1)C(N)=O", "note": "[1C11-HTRA2-All-D-Mito] (H-[dA][dL][dL][dT][dS]G[dT][dS][dD][dP][dR][dA][dR][dV][dT][dY]G[dT][dP][dS][dL][dW][dA][dR][dL][dR][Dmt][Orn]F-NH2; N-terminus and C-terminus assumed)", "values": [
      {"measurement": "decrease in expression of SMAC in tumors", "setting": "[1]", "result": 80, "unit": "%"},
      {"measurement": "decrease in NF-κB expression in tumors", "setting": "[2]", "result": "~90", "unit": "%"},
      {"measurement": "tumor growth", "setting": "[3]; intravenously, 20 mg/kg", "result": "inhibits tumor growth"},
      {"measurement": "decrease of tumor weight", "setting": "[3]; intravenously, 20 mg/kg, 2 times a week", "result": 50, "unit": "%"},
      {"measurement": "inhibition of tumor growth", "setting": "[3]; mouse, in vivo, iv", "result": 50, "unit": "%"}
    ]},
    {"compound": "ALLTSGTSDPRARVTYGTPSLWARL [1C11]", "values": [
      {"measurement": "Kd", "setting": "[4]", "result": 3, "unit": "µM"},
      {"measurement": "PSD interaction with array peptides after pre-incubation of PSD with the peptide", "setting": "[5]", "result": "eliminate PSD interaction with most peptides"}
    ]},
    {"compound": "Distyrylbenzene-bis-aldehyde [DSB-3]", "values": [
      {"measurement": "cell death", "setting": "[6]", "result": "induces no cell death"}
    ]},
    {"compound": "si-hSMAC-A: Human SMAC/Diablo-specific siRNA, sense SEQ ID NO:33 and anti-sense SEQ ID NO:34 (sense AAGCGGUGUUUCUCAGAATTGTT; antisense AACAAUUCUGAGAAACCCGCTT; chemistry not given here)", "values": [
      {"measurement": "expression of Ki-67 in treated tumors", "setting": "[7]", "result": "highly reduced"},
      {"measurement": "tumor volume reduction relative to si-NT-treated tumors", "setting": "[8]; si-hSMAC-A at 350 nM", "result": 50, "unit": "%"},
      {"measurement": "tumor volume reduction relative to si-NT-treated tumors", "setting": "[8]; si-hSMAC-A at 700 nM", "result": 85, "unit": "%"},
      {"measurement": "cell death in treated tumors", "setting": "[9]", "result": "No cell death was detected"},
      {"measurement": "decrease of PC in treated tumors", "setting": "[10]", "result": 65, "unit": "%"},
      {"measurement": "decrease of PLs in treated tumors", "setting": "[10]", "result": 50, "unit": "%"},
      {"measurement": "increase of PE in treated tumors", "setting": "[10]", "result": 200, "unit": "%"},
      {"measurement": "decrease of SMAC/Diablo level in treated tumors", "setting": "[11]", "result": 75, "unit": "%"}
    ]}
  ]
}
